Literature values in US20050152951A1, “Liquid, eye-instillable preparations comprising sodium hyaluronate” (priority 2001, published 2005).

Settings: water retained by 1 gram of SH

Q: With Sodium hyaluronate [SH] as the substance, how does the water retention read?
A: The water retention was “up to 6 litres”.
